Measurements reported in patent publication US20080076711A1, “Therapeutic agents for osteopenia” (Chugai Seiyaku Kabushiki Kaisha, priority 2001, published 2008).

How the values were obtained:
[1] = test system: OPN knockout (OPN-KO) mice; test: Determination of cortical bone thickness and area after PTH treatment, OPN-KO mice; format: in vivo, mouse; details: PTH(+) group, 80 μg/kg s.c., 4 weeks, femoral mid-diaphysis
Experimental: Horizontal sections were prepared from the femoral mid-diaphysis and tomographed using an X-ray microtomograph Musashi (Nittetsu-ELEX, Osaka, Japan). A Luzex-F automated image analysis system (Nireco, Tokyo, Japan) was then used for analysis of the image data to determine the thickness and area of cortical bone. The thickness was evaluated at the mean value averaged over 8 measurements every 45°.
(§1) To create an animal model in which the in vivo effects of OPN were inhibited, strain 129 female mice at 7 weeks of age were modified into knockout mice deficient in the OPN gene (OPN-KO mice), as described in Rittling et al. J. Bone Miner. Res., 13: 1101-1111, 1998. These mice were singly used for PTH treatment test. They were divided into groups of 6 mice each.
Recombinant human PTH(1-34) (Bachem, Torrance, Calif.) was dissolved in acidified physiological saline supplemented with 0.1% bovine serum albumin (Sigma Chemical Co.-Aldrich, St. Louis, Mo.). The OPN-KO mice were subcutaneously administered with 80 μg/kg of body weight human PTH(1-34) for 4 weeks on a five-days-a-week basis. Mice in the control group were administered with physiological saline alone.

[2] = test system: OPN knockout (OPN-KO) mice; test: Determination of TRAP-positive cells (osteoclasts) after PTH treatment, OPN-KO mice; format: in vivo, mouse; details: PTH(+) group, 80 μg/kg s.c., 4 weeks
Experimental: After treatment with PTH, forefoot bone was excised from each animal. Each bone was rinsed with PBS, fixed for 7 days in 4% paraformaldehyde acid and decalcified for 3 days in 10% EDTA (pH 7.4), followed by dehydration and embedding in paraffin. Serial sections of 7 μm thickness were prepared from paraffin blocks and stained to measure TRAP (tartrate resistant acid phosphatase) activity, with Alcian blue for counter-staining. Among TRAP-positive cells attached to cancellous bone, those having at least three nuclei were counted using 15 serial sections of 7 μm thickness prepared from each bone. Each of the 15 sections was taken at five-section intervals from a total of 75 sections per bone. The number of multinucleated TRAP-positive cells in all 15 sections was summed to give the total number of osteoclasts per unit trabecular perimeter.
as §1
Recombinant human PTH(1-34) (Bachem, Torrance, Calif.) was dissolved in acidified physiological saline supplemented with 0.1% bovine serum albumin (Sigma Chemical Co.-Aldrich, St. Louis, Mo.). […]

## human PTH(1-34)
[1]
  area of cortical bone: 0.88±0.13 mm^2
  thickness of cortical bone: 0.26±0.04 mm
[2]
  number of osteoclasts per unit trabecular perimeter of cancellous bone: 7.6±1.0 cells/mm
